In patent US11813245B2, “Sulcardine administration for treatment of acute atrial fibrillation” (HUYABIO International, LLC, priority 2020, dated 2023):
Where a name gives a salt, the structure may show the parent alone. Read-outs that look alike come from different tables or passages of the source.

Assays:
[1] = test system: healthy subjects; experiment: Phase 1 single ascending dose trial of intravenous HBI-3000: continuous 12-lead Holter ECG, baseline and placebo subtracted (ΔΔ) ECG intervals at Cmax; type: in vivo, human
Procedure: (§1) HBI-3000 (sulcardine sulfate) was administered to human subjects according to the protocol provided in (Clinical Trials.gov Identifier: NCT03397641. That protocol is incorporated herein by reference in its entirety.
(§2) Objective: Provided herein are the safety, tolerability, pharmacokinetics and electrocardiogram (ECG) results of a Phase 1 single ascending dose trial of intravenous (IV) HBI-3000 in healthy subjects.
(§3) Methods: […] subjects were randomized to 6 cohorts of 8 subjects to receive 1 of 5 single ascending iv doses (Table 2) of HBI-3000 or placebo (6:2), with 2 cohorts receiving the 600 mg dose. Doses of HBI-3000 ranged from 20 mg (Cohort A), 60 mg (Cohort B), 180 mg (Cohort C), 360 mg (Cohort D), to 600 mg (Cohort E and F). Drug was a lyophilized powder, reconstituted to […] then diluted in saline for delivery via intravenous infusion as a 50 mL solution over 30 minutes.
Continuous 12-lead Holter ECG data were recorded at baseline and 11 time points thereafter. Mean baseline and placebo subtracted (ΔΔ) ECG intervals (QTcF, HR, PR, QRS, and P-wave duration [PDur]) and T-wave segments (J to T peak [JTp] and T peak to T end [TpTe]) were calculated at Cmax for each dose.
Table 2 summarizes ECG data at Cmax for each dose, as predicted by mixed-effects modeling. […] The increases in QRS and PDur are consistent with block of INa-Peak. The increase in the PR interval is consistent with the increase in PDur and with both INa-Peak and ICa,L inhibition. Prolongation of TpTe is consistent with IKr block, which would be expected, in isolation, to lengthen JTp as well. The observed dose-related reduction of JTp is likely due to counteraction of the effect of HBI-3000 on IKr through its inhibition of both INa-Late, and ICa,L.

[2] = Phase 1 single ascending dose trial of intravenous HBI-3000: pharmacokinetics; type: in vivo; conditions: human, plasma
Procedure: as §1, §2, §3
In some instances, the patient is administered 350 mg of HBI-3000.

[3] = test system: healthy subjects; experiment: Phase 1 single ascending dose trial of intravenous HBI-3000: safety and tolerability; type: in vivo, human; conditions: single ascending iv doses 20-600 mg
Procedure: as §1, §2, §3

[4] = biological target: INa-Peak (Homo sapiens, UniProt Q14524); conditions: background statement; cited from earlier work
[5] = biological target: INa-Late (Homo sapiens, UniProt Q14524); conditions: background statement; cited from earlier work
[6] = biological target: ICa,L (Homo sapiens, UniProt Q13936); conditions: background statement; cited from earlier work
[7] = biological target: IKr (Homo sapiens, UniProt Q12809); conditions: background statement; cited from earlier work
[8] = Chen et al.; cited from earlier work
[9] = 20 mg single iv infusion over 30 min, at Cmax 135 ng/ml, N=6, concentration-effect regression model
[10] = 60 mg single iv infusion over 30 min, at Cmax 378 ng/ml, N=6, concentration-effect regression model
[11] = 180 mg single iv infusion over 30 min, at Cmax 1530 ng/ml, N=6, concentration-effect regression model
[12] = 360 mg single iv infusion over 30 min, at Cmax 3120 ng/ml, N=5, concentration-effect regression model
[13] = 600 mg single iv infusion over 30 min, at Cmax 5280 ng/ml, N=12, concentration-effect regression model
[14] = concentration-effect regression model, iv doses 20-600 mg
[15] = 20 mg single iv infusion over 30 min, healthy subjects, N=6
[16] = 60 mg single iv infusion over 30 min, healthy subjects, N=6
[17] = 180 mg single iv infusion over 30 min, healthy subjects, N=6
[18] = 360 mg single iv infusion over 30 min, healthy subjects, N=5
[19] = 600 mg single iv infusion over 30 min, healthy subjects, N=12

ICa,L, sequence (Q13936 whole entry): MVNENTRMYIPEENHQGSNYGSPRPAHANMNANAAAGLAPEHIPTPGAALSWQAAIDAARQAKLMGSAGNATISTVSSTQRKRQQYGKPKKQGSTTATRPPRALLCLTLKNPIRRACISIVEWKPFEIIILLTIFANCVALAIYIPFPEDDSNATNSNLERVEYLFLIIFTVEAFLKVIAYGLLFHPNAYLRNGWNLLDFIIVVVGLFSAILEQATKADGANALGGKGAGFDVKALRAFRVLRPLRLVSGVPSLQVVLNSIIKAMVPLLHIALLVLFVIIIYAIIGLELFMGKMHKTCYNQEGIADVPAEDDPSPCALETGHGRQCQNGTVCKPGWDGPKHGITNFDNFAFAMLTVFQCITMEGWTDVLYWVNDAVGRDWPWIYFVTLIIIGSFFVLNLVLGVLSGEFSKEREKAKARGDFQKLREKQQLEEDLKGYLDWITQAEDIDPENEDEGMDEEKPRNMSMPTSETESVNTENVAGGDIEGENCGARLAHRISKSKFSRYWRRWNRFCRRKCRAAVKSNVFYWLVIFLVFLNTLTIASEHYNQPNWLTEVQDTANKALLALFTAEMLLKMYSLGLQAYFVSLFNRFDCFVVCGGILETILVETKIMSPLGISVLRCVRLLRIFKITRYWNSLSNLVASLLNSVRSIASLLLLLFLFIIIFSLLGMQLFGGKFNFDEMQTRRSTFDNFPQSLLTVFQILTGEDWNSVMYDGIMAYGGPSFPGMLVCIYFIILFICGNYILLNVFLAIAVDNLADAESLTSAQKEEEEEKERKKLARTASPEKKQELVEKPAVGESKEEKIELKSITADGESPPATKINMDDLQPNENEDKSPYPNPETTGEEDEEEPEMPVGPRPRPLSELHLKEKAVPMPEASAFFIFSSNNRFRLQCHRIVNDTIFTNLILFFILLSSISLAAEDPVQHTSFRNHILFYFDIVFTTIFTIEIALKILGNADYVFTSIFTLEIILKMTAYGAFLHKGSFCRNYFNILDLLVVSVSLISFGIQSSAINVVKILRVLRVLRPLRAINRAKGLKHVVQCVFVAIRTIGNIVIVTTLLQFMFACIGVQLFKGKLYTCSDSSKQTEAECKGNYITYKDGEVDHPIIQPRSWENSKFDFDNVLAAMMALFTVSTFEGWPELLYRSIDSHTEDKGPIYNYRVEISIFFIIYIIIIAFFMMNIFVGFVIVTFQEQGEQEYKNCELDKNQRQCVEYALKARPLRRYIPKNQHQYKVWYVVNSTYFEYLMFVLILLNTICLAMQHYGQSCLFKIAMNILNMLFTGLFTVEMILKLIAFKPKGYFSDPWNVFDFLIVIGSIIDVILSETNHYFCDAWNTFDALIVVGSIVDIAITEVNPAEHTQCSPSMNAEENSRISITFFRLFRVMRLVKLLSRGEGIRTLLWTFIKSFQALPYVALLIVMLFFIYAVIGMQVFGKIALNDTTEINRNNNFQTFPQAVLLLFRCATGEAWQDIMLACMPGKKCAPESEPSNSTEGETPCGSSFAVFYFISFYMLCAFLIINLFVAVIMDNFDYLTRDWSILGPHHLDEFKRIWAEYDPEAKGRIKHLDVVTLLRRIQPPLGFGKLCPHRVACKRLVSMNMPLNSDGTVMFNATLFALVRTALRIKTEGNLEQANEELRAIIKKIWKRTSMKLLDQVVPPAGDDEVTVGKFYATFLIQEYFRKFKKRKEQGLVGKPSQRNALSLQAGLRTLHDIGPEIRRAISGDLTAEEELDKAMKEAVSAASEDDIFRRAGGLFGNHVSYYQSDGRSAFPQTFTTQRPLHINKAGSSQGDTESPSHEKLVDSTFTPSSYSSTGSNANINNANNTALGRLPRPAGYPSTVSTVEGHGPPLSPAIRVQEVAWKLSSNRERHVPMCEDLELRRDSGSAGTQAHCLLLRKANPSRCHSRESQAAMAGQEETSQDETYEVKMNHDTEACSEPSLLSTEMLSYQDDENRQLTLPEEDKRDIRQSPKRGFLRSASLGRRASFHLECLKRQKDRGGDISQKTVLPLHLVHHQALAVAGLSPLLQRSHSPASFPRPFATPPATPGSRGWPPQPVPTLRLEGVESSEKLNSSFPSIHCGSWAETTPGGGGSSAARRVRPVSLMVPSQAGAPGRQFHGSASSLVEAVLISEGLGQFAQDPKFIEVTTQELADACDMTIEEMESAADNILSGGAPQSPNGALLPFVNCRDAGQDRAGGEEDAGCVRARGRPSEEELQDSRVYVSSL
ICa,L, sequence (Q08289 whole entry partner): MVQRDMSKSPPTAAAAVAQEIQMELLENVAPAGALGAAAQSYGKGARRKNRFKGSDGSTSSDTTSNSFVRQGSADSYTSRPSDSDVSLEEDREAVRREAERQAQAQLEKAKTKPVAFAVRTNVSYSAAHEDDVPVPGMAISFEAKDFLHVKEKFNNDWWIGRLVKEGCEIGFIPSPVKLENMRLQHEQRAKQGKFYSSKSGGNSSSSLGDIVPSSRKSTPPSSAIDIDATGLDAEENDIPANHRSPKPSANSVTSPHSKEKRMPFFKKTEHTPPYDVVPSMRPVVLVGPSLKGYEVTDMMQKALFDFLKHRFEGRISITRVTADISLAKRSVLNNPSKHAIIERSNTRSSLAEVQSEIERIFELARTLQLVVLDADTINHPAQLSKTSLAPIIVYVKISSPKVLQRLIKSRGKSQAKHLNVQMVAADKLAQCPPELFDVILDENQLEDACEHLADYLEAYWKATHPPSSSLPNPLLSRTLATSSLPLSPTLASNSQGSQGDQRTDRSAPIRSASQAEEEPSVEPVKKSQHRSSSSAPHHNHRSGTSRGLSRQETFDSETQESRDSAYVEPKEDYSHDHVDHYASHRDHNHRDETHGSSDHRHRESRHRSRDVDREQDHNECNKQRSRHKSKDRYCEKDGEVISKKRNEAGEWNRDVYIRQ
ICa,L, sequence (P54289 25-946 partner limits assumed): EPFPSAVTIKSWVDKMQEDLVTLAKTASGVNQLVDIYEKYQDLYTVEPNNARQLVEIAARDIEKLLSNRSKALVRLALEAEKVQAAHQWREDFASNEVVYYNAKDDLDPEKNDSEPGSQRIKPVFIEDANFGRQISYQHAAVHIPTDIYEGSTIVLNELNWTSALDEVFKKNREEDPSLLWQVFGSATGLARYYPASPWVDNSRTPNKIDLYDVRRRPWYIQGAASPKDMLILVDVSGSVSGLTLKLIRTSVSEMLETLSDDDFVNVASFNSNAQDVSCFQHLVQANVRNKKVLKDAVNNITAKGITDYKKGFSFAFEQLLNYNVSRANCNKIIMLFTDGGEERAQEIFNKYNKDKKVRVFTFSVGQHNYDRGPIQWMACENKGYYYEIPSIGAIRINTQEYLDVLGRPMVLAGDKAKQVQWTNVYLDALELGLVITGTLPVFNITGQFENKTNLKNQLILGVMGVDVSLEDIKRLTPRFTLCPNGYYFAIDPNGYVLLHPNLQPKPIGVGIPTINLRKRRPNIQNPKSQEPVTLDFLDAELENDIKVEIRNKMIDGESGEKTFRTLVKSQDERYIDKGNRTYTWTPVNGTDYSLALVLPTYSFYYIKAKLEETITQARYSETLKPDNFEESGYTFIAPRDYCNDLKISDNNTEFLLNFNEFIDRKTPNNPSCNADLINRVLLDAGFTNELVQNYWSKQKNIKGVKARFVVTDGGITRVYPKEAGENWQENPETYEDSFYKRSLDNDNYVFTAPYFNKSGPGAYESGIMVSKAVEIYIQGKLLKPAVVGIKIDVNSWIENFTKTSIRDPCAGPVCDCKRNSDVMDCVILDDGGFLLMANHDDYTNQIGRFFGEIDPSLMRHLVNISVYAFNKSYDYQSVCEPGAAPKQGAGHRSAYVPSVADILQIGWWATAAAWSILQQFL
ICa,L, sequence (P54289 947-1103 partner limits assumed): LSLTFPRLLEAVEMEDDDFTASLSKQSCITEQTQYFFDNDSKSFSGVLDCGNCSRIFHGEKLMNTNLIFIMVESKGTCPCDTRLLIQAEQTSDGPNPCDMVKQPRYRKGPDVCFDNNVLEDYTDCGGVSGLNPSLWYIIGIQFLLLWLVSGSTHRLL
IKr, sequence (Q12809 whole entry): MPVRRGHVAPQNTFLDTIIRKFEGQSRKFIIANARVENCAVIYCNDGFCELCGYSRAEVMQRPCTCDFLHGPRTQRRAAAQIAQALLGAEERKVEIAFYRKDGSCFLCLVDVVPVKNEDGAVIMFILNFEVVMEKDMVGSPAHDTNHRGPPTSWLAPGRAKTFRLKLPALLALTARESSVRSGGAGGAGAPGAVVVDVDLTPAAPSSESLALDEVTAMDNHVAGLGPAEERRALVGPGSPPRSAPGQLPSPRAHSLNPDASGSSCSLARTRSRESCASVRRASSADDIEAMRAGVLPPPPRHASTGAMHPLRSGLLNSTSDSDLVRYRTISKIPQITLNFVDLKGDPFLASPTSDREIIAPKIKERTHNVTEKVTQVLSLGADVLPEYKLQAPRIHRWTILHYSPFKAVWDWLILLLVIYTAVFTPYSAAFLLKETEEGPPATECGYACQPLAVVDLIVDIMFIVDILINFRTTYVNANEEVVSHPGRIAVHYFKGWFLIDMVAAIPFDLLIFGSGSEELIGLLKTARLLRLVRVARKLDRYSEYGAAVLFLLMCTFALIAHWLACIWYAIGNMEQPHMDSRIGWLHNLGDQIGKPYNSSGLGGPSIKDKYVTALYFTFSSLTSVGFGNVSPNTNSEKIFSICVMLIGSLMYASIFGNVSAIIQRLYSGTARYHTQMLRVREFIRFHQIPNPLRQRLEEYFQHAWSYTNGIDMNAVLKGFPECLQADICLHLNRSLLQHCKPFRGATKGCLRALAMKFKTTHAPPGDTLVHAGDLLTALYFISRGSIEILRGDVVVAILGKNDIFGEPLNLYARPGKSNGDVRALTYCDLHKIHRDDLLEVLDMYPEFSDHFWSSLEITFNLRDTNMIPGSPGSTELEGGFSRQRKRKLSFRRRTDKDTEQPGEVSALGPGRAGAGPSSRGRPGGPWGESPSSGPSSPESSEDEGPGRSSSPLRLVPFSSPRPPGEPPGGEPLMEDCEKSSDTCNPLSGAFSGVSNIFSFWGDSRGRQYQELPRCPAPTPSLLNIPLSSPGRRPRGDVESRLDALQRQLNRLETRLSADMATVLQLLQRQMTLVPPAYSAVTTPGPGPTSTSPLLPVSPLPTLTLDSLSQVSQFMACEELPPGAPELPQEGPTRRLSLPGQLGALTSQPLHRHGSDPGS

COc1ccc(S(=O)(=O)NCc2cc(CN3CCCC3)c(O)c(CN3CCCC3)c2)cc1 [HBI-3000, sulcardine sulfate]
ΔΔHR [1, 9]: 1.74 bpm
ΔΔJTp [1, 9]: -2.87 ms
ΔΔPDur [1, 9]: 3.17 ms
ΔΔPR [1, 9]: 5.08 ms
ΔΔQRS [1, 9]: -0.08 ms
ΔΔQTcF [1, 9]: 1.40 ms
ΔΔTpTe [1, 9]: 1.95 ms
ΔΔHR [1, 10]: 2.21 bpm
ΔΔJTp [1, 10]: -5.28 ms
ΔΔPDur [1, 10]: 3.71 ms
ΔΔPR [1, 10]: 6.06 ms
ΔΔQRS [1, 10]: 0.54 ms
ΔΔQTcF [1, 10]: 2.35 ms
ΔΔTpTe [1, 10]: 2.20 ms
ΔΔHR [1, 11]: 4.44 bpm
ΔΔJTp [1, 11]: -15.09 ms
ΔΔPDur [1, 11]: 6.24 ms
ΔΔPR [1, 11]: 10.73 ms
ΔΔQRS [1, 11]: 3.50 ms
ΔΔQTcF [1, 11]: 6.89 ms
ΔΔTpTe [1, 11]: 3.37 ms
ΔΔHR [1, 12]: 7.70 bpm
ΔΔJTp [1, 12]: -24.60 ms
ΔΔPDur [1, 12]: 9.93 ms
ΔΔPR [1, 12]: 17.53 ms
ΔΔQRS [1, 12]: 7.81 ms
ΔΔQTcF [1, 12]: 13.50 ms
ΔΔTpTe [1, 12]: 5.07 ms
ΔΔHR [1, 13]: 12.75 bpm
ΔΔJTp [1, 13]: -28.10 ms
ΔΔPDur [1, 13]: 15.67 ms
ΔΔPR [1, 13]: 28.10 ms
ΔΔQRS [1, 13]: 14.50 ms
ΔΔQTcF [1, 13]: 23.77 ms
ΔΔTpTe [1, 13]: 7.72 ms
onset and loss of pharmacodynamic effect ([1]; about 400 mg to about 800 mg according to the protocol, human subjects): quickly effective and then quickly loses its effect
Slope, ΔΔHR [1, 14]: 0.0019
Slope, ΔΔJTp [1, 14]: −0.0000
Slope, ΔΔPDur [1, 14]: 0.0022
Slope, ΔΔPR [1, 14]: 0.0040
Slope, ΔΔQRS [1, 14]: 0.0026
Slope, ΔΔQTcF [1, 14]: 0.0039
Slope, ΔΔTpTe [1, 14]: 0.0010
changes in ECG parameters ([1]; single ascending iv doses 20-600 mg, healthy subjects): dose-proportional changes in all ECG parameters
AUC(0-t) ([2]; intravenous, 350 mg, read-out: AUC (0-24)): 2880 ng·h/mL
AUC(0-t) ([2]; intravenous, 350 mg, read-out: AUC (0-last)): 3370 ng·h/mL
Cmax ([2]; intravenous, 350 mg, read-out: Cmax): 3080 ng/mL
AUC(0-inf) ([2]; intravenous, 350 mg dose): 3720 ng·h/mL
half-life ([2]; intravenous, 350 mg dose): 43 h
Tmax ([2]; intravenous, 350 mg dose, read-out: Tmax): 27 min
Cmax ([2]; iv, 20 mg, 20 mg single iv infusion over 30 min, N=6, as used for ΔΔECG model, read-out: Cmax (Table 2)): 135 ng/mL
AUC(0-t) ([2]; iv, 20 mg, 20 mg single iv infusion over 30 min, healthy subjects, N=6, read-out: AUC (0-24)): 89.7 ng·h/mL
AUC(0-t) ([2]; iv, 20 mg, 20 mg single iv infusion over 30 min, healthy subjects, N=6, read-out: AUC (0-last)): 86.2 ng·h/mL
Cmax ([2]; iv, 20 mg, 20 mg single iv infusion over 30 min, healthy subjects, N=6, read-out: Cmax): 131 ng/mL
Cmax ([2]; iv, 60 mg, 60 mg single iv infusion over 30 min, N=6, as used for ΔΔECG model, read-out: Cmax (Table 2)): 378 ng/mL
AUC(0-t) ([2]; iv, 60 mg, 60 mg single iv infusion over 30 min, healthy subjects, N=6, read-out: AUC (0-24)): 299 ng·h/mL
AUC(0-t) ([2]; iv, 60 mg, 60 mg single iv infusion over 30 min, healthy subjects, N=6, read-out: AUC (0-last)): 306 ng·h/mL
Cmax ([2]; iv, 60 mg, 60 mg single iv infusion over 30 min, healthy subjects, N=6, read-out: Cmax): 369 ng/mL
Cmax ([2]; iv, 180 mg, 180 mg single iv infusion over 30 min, N=6, as used for ΔΔECG model, read-out: Cmax (Table 2)): 1530 ng/mL
AUC(0-t) ([2]; iv, 180 mg, 180 mg single iv infusion over 30 min, healthy subjects, N=6, read-out: AUC (0-24)): 1270 ng·h/mL
AUC(0-t) ([2]; iv, 180 mg, 180 mg single iv infusion over 30 min, healthy subjects, N=6, read-out: AUC (0-last)): 1550 ng·h/mL
Cmax ([2]; iv, 180 mg, 180 mg single iv infusion over 30 min, healthy subjects, N=6, read-out: Cmax): 1430 ng/mL
Cmax ([2]; iv, 360 mg, 360 mg single iv infusion over 30 min, N=5, as used for ΔΔECG model, read-out: Cmax (Table 2)): 3120 ng/mL
AUC(0-t) ([2]; iv, 360 mg, 360 mg single iv infusion over 30 min, healthy subjects, N=5, read-out: AUC (0-24)): 2960 ng·h/mL
AUC(0-t) ([2]; iv, 360 mg, 360 mg single iv infusion over 30 min, healthy subjects, N=5, read-out: AUC (0-last)): 3470 ng·h/mL
Cmax ([2]; iv, 360 mg, 360 mg single iv infusion over 30 min, healthy subjects, N=5, read-out: Cmax): 3170 ng/mL
Cmax ([2]; iv, 600 mg, 600 mg single iv infusion over 30 min, N=12, as used for ΔΔECG model, read-out: Cmax (Table 2)): 5280 ng/mL
AUC(0-t) ([2]; iv, 600 mg, 600 mg single iv infusion over 30 min, healthy subjects, N=12, read-out: AUC (0-24)): 5810 ng·h/mL
AUC(0-t) ([2]; iv, 600 mg, 600 mg single iv infusion over 30 min, healthy subjects, N=12, read-out: AUC (0-last)): 6640 ng·h/mL
Cmax ([2]; iv, 600 mg, 600 mg single iv infusion over 30 min, healthy subjects, N=12, read-out: Cmax): 5580 ng/mL
AUC(0-inf) [2, 15]: 175 ng·h/mL
half-life [2, 15]: 0.62 h
Tmax ([2]; 20 mg single iv infusion over 30 min, healthy subjects, N=6, read-out: Tmax Mean): 25.2 min
AUC(0-inf) [2, 16]: 312 ng·h/mL
half-life [2, 16]: 9.16 h
Tmax ([2]; 60 mg single iv infusion over 30 min, healthy subjects, N=6, read-out: Tmax Mean): 22.8 min
AUC(0-inf) [2, 17]: 2050 ng·h/mL
half-life [2, 17]: 54.8 h
Tmax ([2]; 180 mg single iv infusion over 30 min, healthy subjects, N=6, read-out: Tmax Mean): 27.6 min
AUC(0-inf) [2, 18]: 3830 ng·h/mL
half-life [2, 18]: 43.7 h
Tmax ([2]; 360 mg single iv infusion over 30 min, healthy subjects, N=5, read-out: Tmax Mean): 27 min
AUC(0-inf) [2, 19]: 7580 ng·h/mL
half-life [2, 19]: 41.1 h
Tmax ([2]; 600 mg single iv infusion over 30 min, healthy subjects, N=12, read-out: Tmax Mean): 27.6 min
safety, tolerability [3]: well tolerated with no dose limiting adverse events or arrhythmias observed
in vitro inhibitory effects on INa-Peak [4]: relatively balanced in vitro inhibitory effects
in vitro inhibitory effects on INa-Late [5]: relatively balanced in vitro inhibitory effects
in vitro inhibitory effects on ICa,L [6]: relatively balanced in vitro inhibitory effects
in vitro inhibitory effects on IKr [7]: relatively balanced in vitro inhibitory effects

COc1ccc(S(=O)(=O)NCc2cc(CN3CCCC3)c(O)c(CN3CCCC3)c2)cc1 [sulcardine, N-[4-hydroxy-3,5-bis(1-pyrrolidinylmethyl)benzyl]-4-methoxybenzenesulfonamide]
expected half-life for oral administration [8]: about 16 hours
